Results on 2 compounds are retold here after PMC12606464, “Investigating NFE2L1 activators for targeted protein aggregate clearance: a follow-up study” (RSC Medicinal Chemistry, 2025).

One test has as its system NFE2L1 pathway. The experiment in a line: 3×PSMA4-ARE-LUC reporter with or without N-acetyl-L-cysteine (NAC). Format: cell-based, human. Conditions: HEK293, 5 μM, 16 h. The text has this:
We next examined whether the selected RUN compounds activate the NFE2L1 pathway in a stress-independent manner, while preserving normal ubiquitin-dependent proteasomal degradation. This distinction is crucial, as the therapeutic benefit of NFE2L1 activation lies in its ability to alleviate proteotoxic stress and target disease-related proteins for degradation without compromising normal proteostasis. To assess this, U2OS cells stably expressing the short-lived fluorescent reporter Ub-G76V-GFP were treated with various concentrations of RUN compounds. […] We also examined whether compound-induced activation of NFE2L1 could be attributed to the generation of reactive oxygen species (ROS). To test this, the 3×PSMA4-ARE-LUC reporter assay was performed in the presence or absence of the antioxidant N-acetyl-L-cysteine (NAC). A decrease in reporter activity upon NAC treatment would indicate pathway activation through oxidative stress. […]
To determine whether RUN compounds activate the NFE2L1 pathway via reactive oxygen species (ROS) generation or through Keap1-NRF2 pathway crosstalk, we used the 3xPSMA4-ARE-LUC dual reporter assay in HEK293 cells. […] A reduction in luminescence signal upon NAC co-treatment would indicate that the compound activates the reporter via ROS-mediated mechanism or Keap1-NRF2-dependent oxidative/electrophilic stress. […]

Another test has as its system Q35-YFP foci. Nature of the test: Q35-YFP aggregation in C. elegans strain AM140. Format: in vivo, Caenorhabditis elegans. On the procedure: Furthermore, we explored the role of RUN-89 in preventing huntingtin protein aggregation in C. elegans. For this AM140 strain, stably expressing aggregation-prone 35-glutamine long repeats marked with yellow fluorescence protein (Q35-YFP) were used.[82,83] A six-day treatment with 50 μM RUN-89 or a vehicle control was conducted, followed by microscopy analysis. […] These findings highlight the substantial impact of RUN-89 on foci formation or persistence, further supporting its role in suppressing pathological clustering in protein aggregation diseases or reducing stress-response assemblies.
Fig. 5 RUN-89 prevents protein aggregation and increases stress resistance in C. elegans. (A) The AM140 strain expressing aggregation-prone Q35-YFP was treated with 50 μM RUN-89 or the vehicle for 6 days, followed by microscopy analysis. Overall, 959 Q35-YFP foci (DMSO = 517; RUN-89 = 442) were identified in 102 animals (DMSO: N = 3 populations, n = 55 animals in total; RUN-89: N = 3 populations, n = 47 animals in total). The two dashed horizontal lines indicate the interquartile range, and the thick horizontal line represents the median. The Kolmogorov–Smirnov test verified a significant reduction of surface and integrated optical density of foci after RUN-89 treatment. (B) Representative images of two animals per treatment condition. Images were taken on the same day, using identical settings for the instruments used. (C) Protective effect of RUN-89 against juglone and paraquat-induced stress. A synchronized population of N2 wild-type worms was exposed to 50 μM RUN-89 for 24 hours to protect against acute oxidative stress triggered by 180 μM juglone and 200 mM paraquat. The mortality was monitored hourly over a 12 hour period. […] Results were analyzed using the Kaplan–Meier method and are presented as survival percentages with standard errors. […]
Transgenic GR2183 worms carrying the reporter gene (rpt -3p::GFP) were exposed to RUN-89 for 24 hours and for AM140 (rmIs132 [unc-54p::Q35::YFP]) to aged 6 days under treatment to establish protein aggregation model. The worms were then anesthetized with […] sodium azide and placed on glass slides with 5% agar for fluorescence microscope observation. The expression of the rpt-3p::GFP reporter in worms was directly related to the intensity of green fluorescence. Images were captured using a Zeiss Axioskop 2 Plus fluorescence microscope and a Zeiss Axio Observer A1 microscope designed for epifluorescence. Image analysis was performed to assess variations in aggregation (both the count and volume of aggregates) and fluorescence signal intensity using ImageJ software (https://imagej.nih.gov/ij/). […]

[1] abbreviates: AM140, 50 μM, six-day treatment, versus DMSO.

With `COc1ccc(/C=C2\CC(NC(=O)c3ccccn3)C/C(=C\c3ccc(OC)c(OC)c3)C2=O)cc1OC` (centres unmarked) [RUN-94], the “NFE2L1 reporter activation in the presence of NAC” value in the test with NFE2L1 pathway is given as “retained its activity”.

With `COc1ccc(/C=C2\CC(NC(=O)C3CCCC3)C/C(=C\c3ccc(OC)c(OC)c3)C2=O)cc1OC` (centres unmarked) [RUN-89], in the test with Q35-YFP foci (setting [1]), the “Q35-YFP foci relative fluorescence density” value was “significant decrease” and the “Q35-YFP foci surface area” value is “significant decrease”. In the test on Q35-YFP foci (C. elegans, Fig. 5A, DMSO median 1.00), the “Q35-YFP intensity, median” value is reported as 0.51 fold change to DMSO median. For the same compound, the “Q35-YFP foci surface, median” value in the test with Q35-YFP foci (C. elegans, Fig. 5A, DMSO median 20) is reported as 17 voxels.
